Laboratory results from US9469606B2, “Wnt/b-catenin inhibitors and methods of use” (The General Hospital Corporation, priority 2011, dated 2016).

Experiments:
β-catenin/TCF = assay: TCF/LEF reporter (TOP-Luciferase) assay in Wnt-dependent HCT116; type: cell-based, human
From the text: (§1) See, for example: • Polakis P. Drugging Wnt signalling in cancer. EMBO J. 2012 May 22; 31(12):2737-46; Bialkowska A B, Yang V W. High-throughput screening strategies for targeted identification of therapeutic compounds in colorectal cancer. Future Oncol. 2012 March; 8(3):259-72; • Huang S M, Mishina Y M, Liu S, Cheung A, Stegmeier F, Michaud G A, Charlat O, Wiellette E, Zhang Y, Wiessner S. Hild M, Shi X, Wilson C J, Mickanin C. Myer V, Fazal A, Tomlinson R, Serluca F, Shao W, Cheng H, Shultz M, Rau C, Schirle M, Schlegl J, Ghidelli S, Fawell S, Lu C, Curtis D, Kirschner M W, Lengauer C. Finan P M, Tallarico J A, Bouwmeester T, Porter J A, Bauer A, Cong F. Tankyrase inhibition stabilizes axin and antagonizes Wnt signalling. Nature. 2009 Oct. 1; 461(7264):614-20; • Chen B, Dodge M E, Tang W, Lu J, Ma Z, Fan C W, Wei S, Hao W, Kilgore J, Williams N S, Roth M G, Amatruda J F. Chen C. Lum L. Small molecule-mediated disruption of Wnt-dependent signaling in tissue regeneration and cancer. Nat Chem. Biol. 2009 February; 5(2): 100-7; • Thorne C A, Hanson A J, Schneider J, Tahinci E, Orton D, Cselenyi C S, Jernigan K K, Meyers K C, Hang B I, Waterson A G, Kim K, Melancon B, Ghidu V P, Sulikowski G A, LaFleur B, Salic A, Lee L A, Miller D M 3rd, Lee E. Small-molecule inhibition of Wnt signaling through activation of casein kinase 1α. […]

β-catenin [1] = assay: Wnt-induced β-catenin accumulation; type: cell-based
From the text: as §1

β-catenin [2] = assay: β-catenin protein level and phosphorylation in HCT116 cells; type: cell-based, human
From the text: as §1

[3] = test system: β-catenin/TCF-dependent genes; assay: Wnt/β-catenin target gene expression (real-time quantitative PCR, protein level); type: cell-based
Experimental: A. mRNA expression was measured by Real-time quantitative PCR.
as §1, with “1α. Nat Chem. Biol. 2010 November; 6(11):829-36; • Wei W, Chua M S. Grepper S, So S. Small molecule antagonists of Tcf4/beta-catenin complex inhibit the growth of HCC cells in vitro and in vivo. Int J Cancer. 2010 May 15; 126(10):2426-36; • Lepourcelet M, Chen Y N, France D S, Wang H, Crews P, Petersen F, Bruseo C, Wood A W, Shivdasani R A. Small-molecule antagonists of the oncogenic Tcf/beta-catenin protein complex. Cancer Cell. 2004 January; 5(1):91-102; • Grossmann T N, Yeh J T, Bowman B R, Chu Q, Moellering R E, Verdine G L. Inhibition of oncogenic Wnt signaling through direct targeting of β-catenin. Proc Natl Acad Sci USA. 2012 Oct. 15.” for “1α.”

[4] = test system: beta-catenin target gene promoters; assay: ChIP-RT-PCR of β-catenin recruitment to target promoters in HCT116 cells; type: cell-based, human
From the text: as §1

[5] = test system: Wnt/β-catenin-dependent cancer cells; assay: Cytotoxicity in Wnt/β-catenin-dependent cancer cells; type: cell-based
From the text: as §1

[6] = test system: Wnt/β-catenin-independent cancer cells; assay: Cytotoxicity in Wnt/β-catenin-independent cancer cells; type: cell-based
From the text: as §1

normal cells = assay: Cytotoxicity in normal cells; type: cell-based
From the text: as §1

[7] = test system: Wnt/β-catenin-dependent cancer cells; assay: Colony formation; type: cell-based; conditions: a number of Wnt/β-catenin-dependent cancer cells
From the text: as §1

β-catenin [8] = assay: Western blotting and immunoprecipitation of β-catenin forms; type: cell-based
From the text: as §1, with “1α. Nat Chem. Biol. 2010 November; 6(11):829-36; • Wei W, Chua M S. Grepper S, So S. Small molecule antagonists of Tcf4/beta-catenin complex inhibit the growth of HCC cells in vitro and in vivo. Int J Cancer. 2010 May 15; 126(10):2426-36; • Lepourcelet M, Chen Y N, France D S, Wang H, Crews P, Petersen F, Bruseo C, Wood A W, Shivdasani R A. Small-molecule antagonists of the oncogenic Tcf/beta-catenin protein complex. Cancer Cell. 2004 January; 5(1):91-102; • Grossmann T N, Yeh J T, Bowman B R, Chu Q, Moellering R E, Verdine G L. Inhibition of oncogenic Wnt signaling through direct targeting of β-catenin. Proc Natl Acad Sci USA. 2012 Oct. 15.” for “1α.”

[9] = test system: HCT116 colon cancer cells; assay: Xenograft study, HCT116; type: in vivo; conditions: HCT116 xenograft in mice, 20 mg/kg daily i.p.
Experimental: (§2) A, HCT116 colon cancer cells; B, HT115 colon cancer cells; and C, H23 human lung cancer cells. 20 mg/kg was injected daily via i.p.
as §1, with “cancer.” for “cancer. Nat Chem. Biol. 2009 February; 5(2): 100-7; • Thorne C A, Hanson A J, Schneider J, Tahinci E, Orton D, Cselenyi C S, Jernigan K K, Meyers K C, Hang B I, Waterson A G, Kim K, Melancon B, Ghidu V P, Sulikowski G A, LaFleur B, Salic A, Lee L A, Miller D M 3rd, Lee E. Small-molecule inhibition of Wnt signaling through activation of casein kinase 1α.”

HT115 colon cancer cells = assay: Xenograft study, HT115; type: in vivo; conditions: HT115 xenograft in mice, 20 mg/kg daily i.p.
Experimental: as §2
as §1, with “cancer.” for “cancer. Nat Chem. Biol. 2009 February; 5(2): 100-7; • Thorne C A, Hanson A J, Schneider J, Tahinci E, Orton D, Cselenyi C S, Jernigan K K, Meyers K C, Hang B I, Waterson A G, Kim K, Melancon B, Ghidu V P, Sulikowski G A, LaFleur B, Salic A, Lee L A, Miller D M 3rd, Lee E. Small-molecule inhibition of Wnt signaling through activation of casein kinase 1α.”

[10] = test system: H23 human lung cancer cells; assay: Xenograft study, H23; type: in vivo; conditions: H23 xenograft in mice, 20 mg/kg daily i.p.
Experimental: as §2
as §1, with “cancer.” for “cancer. Nat Chem. Biol. 2009 February; 5(2): 100-7; • Thorne C A, Hanson A J, Schneider J, Tahinci E, Orton D, Cselenyi C S, Jernigan K K, Meyers K C, Hang B I, Waterson A G, Kim K, Melancon B, Ghidu V P, Sulikowski G A, LaFleur B, Salic A, Lee L A, Miller D M 3rd, Lee E. Small-molecule inhibition of Wnt signaling through activation of casein kinase 1α.”

[11] = test system: H460 human lung cancer cells; assay: Wnt/b-catenin-independent tumor growth, H460; type: in vivo; conditions: Wnt/b-catenin-independent H460 tumors in mice
From the text: as §1

mammary tumor = assay: Spontaneous mouse model of breast cancer (MMTV-Wnt1); type: in vivo; conditions: MMTV-Wnt1 tumor mice
From the text: Raj L, Ide T, Gurkar A U, Foley M, Schenone M, Li X, Tolliday N J, Golub T R, Carr S A, Shamji A F, Stern A M, Mandinova A, Schreiber S L, Lee S W. Selective killing of cancer cells by a small molecule targeting the stress response to ROS. Nature. 2011 Jul. 13; 475(7355):231-4; • Huang S, Li Y, Chen Y, Podsypanina K, Chamorro M, Olshen A B, Desai K V, Tann A, Petersen D, Green J E, Varmus H E. Changes in gene expression during the development of mammary tumors in MMTV-Wnt-1 transgenic mice. Genome Biol. 2005; 6(10):R84.

TCF/LEF reporter activity (β-catenin/TCF): inhibits the TCF/LEF reporter activity
Compound: COC(=O)c1cccc(NS(=O)(=O)c2ccc(C)cc2)c1 [OC0021, methyl 3-{[(4-methylphenyl)sulfonyl]amino}benzoate]
transcriptional activity of β-catenin/TCF (β-catenin/TCF; human colon cancer cells HCT116 with beta-catenin mutation): inhibits the transcriptional activity of β-catenin/TCF in a dose dependent manner | Wnt-induced β-catenin accumulation (β-catenin [1]): inhibits Wnt-induced β-catenin accumulation | beta-catenin protein levels (β-catenin [2]; HCT116 cells): decreases beta-catenin protein levels | β-catenin degradation / phosphorylation at T41/S45 (β-catenin [2]; HCT116 colon cancer cells): promotes β-catenin degradation via increased β-catenin phosphorylation at T41/S45 | protein level of endogenous β-catenin/TCF-dependent genes, Cyclin D1 and c-Myc [3]: down regulates the protein level | stability of Axin1 and Axin2 [3]: enhances stability of Axin1 and Axin2 | Wnt/β-catenin-mediated gene transcription (mRNA expression of Myc, cyclin D1, Axin1 and 2) ([3]; Real-time quantitative PCR): modulates Wnt/β-catenin-mediated gene transcription | beta-catenin binding its target gene promoters [4]: inhibits beta-catenin binding its target gene promoters | cytotoxic effect [5]: cytotoxic effect | cytotoxic effect [6]: no significant cytotoxic | cytotoxic effect (normal cells): no significant cytotoxic | colony formation [7]: inhibits colony formation | ABC (Active form of b-catenin) (β-catenin [8]): supresses ABC | expression of oncogene Myc target gene (β-catenin [8]): inhibits the expression of oncogene Myc target gene | phosphorylated β-catenins (phospho-β-catenin-33/37/41; -41/45) (β-catenin [8]): increases phosphorylated β-catenins | anti-tumor activity [9]: anti-tumor activity | anti-tumor activity (HT115 colon cancer cells): anti-tumor activity | anti-tumor activity [10]: anti-tumor activity | tumor growth [11]: does not affect | growth of mammary tumor (mammary tumor): inhibits the growth of mammary tumor
